From patent US20240091310A1, “COMPOSITIONS AND METHODS USEFUL FOR THE PREVENTION AND/OR TREATMENT OF DISEASE IN MAMMALS” (VIRO-GEN (PTY) LTD, priority 2020, published 2024)

Tests used:
HIV = conditions: as previously disclosed; cited from earlier work
[1] = Transdermal absorption of liquid DMF; assay type: in vivo, human; conditions: two patches of diameter 9 cm, total skin surface area 127 cm^2
Method: For transdermal administration of a polar compound, the rate of absorption is determined by the skin of the subject.
Accordingly, the desired rate of absorption may be achieved by controlling the surface area of the skin exposed to the drug, as by determining the area of each patch and the number of patches applied to the skin.

HIV-1 [2] = assay: Follow-up HIV PCR and CD4 count after transdermal DMF study; assay type: in vivo, human
Text: Individuals, the study of whom generated the teachings of ZA 1998/064649, despite being infected with HIV have maintained a CD4^+ T-cell count above 350 for more than 20 years without being on antiretroviral treatment. These individuals are referred to herein as Long-term Non-Progressors (“LTNP”).
One such individual, had initially presented with HIV PCR detecting 63.298 HIV-1 RNA copies/ml of plasma in December 1996.

HIV-1 [3] = conditions: transdermal patch containing DMF; cited from earlier work

C[S+](C)[O-] [DMSO, Diemthylsulfoxide]
inhibition of HIV production (HIV): powerful inhibitors of HIV production

CN(C)C=O [DMF, N,N-dimethylformamide]
inhibition of HIV production (HIV): powerful inhibitors of HIV production | absorption rate [1]: about 1.2 g of DMF per hour | HIV-1 RNA copies/ml of plasma by HIV PCR (HIV-1 [2]; one LTNP individual, follow-up March 2006 after transdermal DMF study, initially 63.298 copies/ml in December 1996): < 40 copies/ml | CD4 Count (HIV-1 [2]; same individual, follow-up 2011): 920 µL⁻¹ | HIV-1 RNA copies/ml of plasma by HIV PCR (HIV-1 [2]; same individual, further follow-up 2011): No | outcome of treatment of patients infected with HIV-1 (HIV-1 [3]): promising results
